From PubChem BioAssay (NCI)
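Each compound was tested at five concentrations against cells in 96-well plates for 48 hours. Here, GI50 denotes the concentration required for 50% inhibition of growth. TGI: concentration producing complete growth inhibition.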

Assays:
Assay in all cases: NCI tumour cell line growth inhibition, 48 h
786-0 renal = test system: 786-0 renal
A549 NSCLC = test system: A549 NSCLC
DU-145 prostate = test system: DU-145 prostate
MDA-MB-231 breast = test system: MDA-MB-231 breast
MDA-MB-435 = test system: MDA-MB-435
OVCAR-5 ovarian = test system: OVCAR-5 ovarian
SK-MEL-2 melanoma = test system: SK-MEL-2 melanoma
SK-OV-3 ovarian = test system: SK-OV-3 ovarian
UACC-257 melanoma = test system: UACC-257 melanoma
UACC-62 melanoma = test system: UACC-62 melanoma

| Compound | GI50 (786-0 renal) [µM] | TGI (786-0 renal) [µM] | GI50 (A549 NSCLC) [µM] | TGI (A549 NSCLC) [µM] | GI50 (DU-145 prostate) [µM] | TGI (DU-145 prostate) [µM] | GI50 (MDA-MB-231 breast) [µM] | TGI (MDA-MB-231 breast) [µM] | GI50 (MDA-MB-435) [µM] | TGI (MDA-MB-435) [µM] | GI50 (OVCAR-5 ovarian) [µM] | TGI (OVCAR-5 ovarian) [µM] | GI50 (SK-MEL-2 melanoma) [µM] | TGI (SK-MEL-2 melanoma) [µM] | GI50 (SK-OV-3 ovarian) [µM] | TGI (SK-OV-3 ovarian) [µM] | GI50 (UACC-257 melanoma) [µM] | TGI (UACC-257 melanoma) [µM] | GI50 (UACC-62 melanoma) [µM] | TGI (UACC-62 melanoma) [µM] |
| --- | --- | --- | --- | --- | --- | --- | --- | --- | --- | --- | --- | --- | --- | --- | --- | --- | --- | --- | --- | --- |
| Cc1ccc(-c2c3c(N)nc(-c4ccncc4)nc3nc3c2c(C)nn3-c2ccccc2)cc1 | 12.4 | > 37.5 | 2.62 | > 37.5 | 5.08 | 20.7 | 4.51 | 13.4 | 12.6 | > 37.5 | > 37.5 | > 37.5 | 13.7 | > 37.5 | 3.41 | 10.2 | 13.3 | > 37.5 | 13.8 | > 37.5 |
| O=S(=O)(CC(O)C(Cl)(Cl)Cl)NNc1ccccc1 (centres undefined) | – | > 100 | – | > 100 | – | > 100 | – | > 100 | – | > 100 | – | > 100 | – | > 100 | – | > 100 | – | > 100 | – | > 100 |
| c1cc2ccc3cc2cc1CNCCOCCNCc1ccc2ccc(cc2c1)CNCCOCCNC3 | > 100 | > 100 | > 100 | > 100 | > 100 | > 100 | > 100 | > 100 | > 100 | > 100 | > 100 | > 100 | > 100 | > 100 | > 100 | > 100 | > 100 | > 100 | > 100 | > 100 |
| COc1cc2c(cc1OCc1ccccc1)N=C[C@@H]1C[C@@H](F)CN1C2=O | 0.189 | 0.661 | 0.829 | 6.98 | 0.144 | 1.66 | 0.232 | 0.553 | 0.857 | 2.39 | 0.298 | 12.1 | 0.279 | – | 2.81 | 45.8 | 0.569 | 3 | 0.183 | 0.369 |
| O=C(NCCSSCCNC(=O)/C(Cc1ccc(O)c(Br)c1)=N/O)/C(Cc1ccc(O)c(Br)c1)=N/O | – | 8.49 | – | 15.5 | – | 12.7 | – | 8.26 | – | > 24.9 | – | 13.5 | – | 3.26 | – | 3.32 | – | > 34.6 | – | 7.32 |
| Cc1cc2oc(=O)c(Cl)c(Cl)c2c(C)c1Cl | – | 10.2 | – | 37.3 | – | 27.8 | – | 28.7 | – | 15.3 | – | 27.8 | – | 26 | – | 27.6 | – | 30 | – | 20.2 |
| [CH3][Sn]([CH3])([CH3])[O]C(=O)C(O)c1ccccc1 (centres undefined) | 4.81 | > 100 | 4.72 | 49.1 | 6.18 | > 100 | 39.2 | > 100 | 3.52 | 14.8 | 9.91 | 76.4 | 2.06 | 4.51 | 10.1 | 47.2 | 4.25 | > 41.7 | 2.11 | 4.49 |
| O=C(CCCCCNC1=CC(=O)c2ccccc2C1=O)NCCC[Te]c1ccccc1 | 2 | 4.17 | 0.32 | 1.54 | 0.43 | 1.9 | 0.236 | 0.606 | 1.92 | 4.67 | 0.362 | 1.48 | 2.79 | 6.3 | 0.487 | 1.85 | 2.4 | 6.33 | 1.32 | 3.37 |
| S=C(Nc1ccc(Cl)cc1)SC1CCCCC1 | – | > 100 | – | 56.4 | – | > 100 | – | > 100 | – | > 100 | – | 62 | – | 39.9 | – | 94.9 | – | 76.5 | – | 28.8 |
| Cc1ccc(-n2nnc3c(sc4ccccc43)c2=O)cc1 | 3.4 | 12.1 | 5.23 | > 100 | 7.41 | > 100 | 4.04 | > 100 | 14.6 | > 100 | > 100 | > 100 | 99 | > 100 | 3.54 | 19.4 | > 100 | > 100 | 51.7 | > 100 |
| Cc1ccn2c(-c3csc(Nc4cccc(O)c4)n3)c(C)nc2c1 | 1.8 | 8.81 | 0.896 | 26.1 | 0.787 | 25.3 | 0.751 | 11.6 | 0.059 | 0.281 | 9.29 | > 81.2 | 0.72 | 20.4 | 1.04 | 11.8 | 3.48 | 19.6 | 0.712 | 19.2 |
| COc1ccc(C2=NNC(c3cc(Cc4ccc(O)c(C5CC(c6ccc(OC)cc6)=NN5)c4)ccc3O)C2)cc1 (centres undefined) | 8.39 | 93.4 | 6.84 | > 100 | 29.8 | > 100 | 14.3 | 83.1 | 8.52 | > 100 | 17.1 | 88 | 5.9 | 29 | 31.6 | > 100 | 25.6 | > 100 | 10.6 | 99.6 |
| Cc1ccc2c(n1)C(=O)C(Cl)=C(Nc1ccc(N3CCN(C)CC3)cc1)C2=O | 1.71 | 3.1 | 14.6 | 30 | 1.76 | 3.25 | 1.73 | 3.19 | 1.88 | 3.46 | 1.82 | 3.34 | 1.87 | 3.56 | 13 | 25.8 | 1.7 | 3.11 | 1.71 | 3.12 |
| NC(Cn1ccc(=O)c(O)c1)C(=O)O (centres undefined) | – | > 100 | – | > 100 | – | > 100 | – | > 100 | – | > 100 | – | > 100 | – | > 100 | – | > 100 | – | > 100 | – | > 100 |
| CCc1ccc(Oc2nccc(-c3c(-c4ccc(F)cc4)ncn3C3CCNCC3)n2)cc1 | 4.91 | 10.4 | 5.18 | 13.3 | 5.83 | 14 | 5.16 | 13.6 | 4.47 | 8.77 | 6.45 | 15.1 | 5.24 | 9.48 | 4.37 | 9.21 | 4.34 | 8.04 | 4.6 | 9.08 |
| CCOP(=O)(CCN1CCN(CCCCCOc2cc3c(cc2OC)C(=O)N2CCC[C@H]2C=N3)CC1)OCC | 12.5 | > 100 | 8.55 | 34.8 | 17.8 | 63.3 | 4.55 | > 100 | 3.36 | 17.3 | 27.7 | 76.6 | 12.5 | 32 | 23.9 | 99.8 | 15.8 | 37.4 | 7.86 | 24.2 |
